Experimental data as given in paper PMC8708689.

T1: IRP1 (iron regulatory protein 1) (UniProt P21399 1-889)
T1 sequence: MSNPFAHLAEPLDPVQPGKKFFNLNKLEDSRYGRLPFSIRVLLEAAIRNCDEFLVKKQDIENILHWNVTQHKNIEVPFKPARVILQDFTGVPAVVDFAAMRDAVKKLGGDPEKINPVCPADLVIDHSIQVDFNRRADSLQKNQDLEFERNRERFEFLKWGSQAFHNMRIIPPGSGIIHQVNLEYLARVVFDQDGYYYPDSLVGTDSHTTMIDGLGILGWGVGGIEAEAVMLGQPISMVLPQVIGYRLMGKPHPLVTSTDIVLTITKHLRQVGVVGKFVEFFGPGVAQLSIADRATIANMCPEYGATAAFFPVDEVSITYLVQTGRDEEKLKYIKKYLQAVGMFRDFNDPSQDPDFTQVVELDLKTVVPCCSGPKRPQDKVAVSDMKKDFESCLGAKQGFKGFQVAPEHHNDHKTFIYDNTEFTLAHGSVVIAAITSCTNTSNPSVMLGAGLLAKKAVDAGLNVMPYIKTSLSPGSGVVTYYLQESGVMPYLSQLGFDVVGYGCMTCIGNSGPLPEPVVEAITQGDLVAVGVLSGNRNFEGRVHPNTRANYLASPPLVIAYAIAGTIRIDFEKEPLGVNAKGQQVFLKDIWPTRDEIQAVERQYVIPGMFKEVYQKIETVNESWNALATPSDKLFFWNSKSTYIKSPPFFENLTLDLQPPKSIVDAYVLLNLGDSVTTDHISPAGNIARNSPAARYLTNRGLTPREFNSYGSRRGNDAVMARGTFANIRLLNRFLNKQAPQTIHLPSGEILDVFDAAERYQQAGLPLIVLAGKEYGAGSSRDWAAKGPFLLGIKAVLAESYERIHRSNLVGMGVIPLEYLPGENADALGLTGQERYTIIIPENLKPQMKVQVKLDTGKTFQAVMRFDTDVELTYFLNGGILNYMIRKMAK


How the values were obtained:
[1] = test system: APP IRE RNA (RNA, mRNA element) GGUGGCGGCGCGGGCAGAGCAAGGACGCGGCGGAU; assay: microscale thermophoresis, labelled IRP1; conditions: 150 mM NaCl; binds IRP1/RNA complex, RNA alone not tested; 2 nM IRP1, 600 nM RNA; 25 mM Tris pH 7.4, 0.1% Prionex
[2] = test system: H-ferritin IRE RNA (RNA, mRNA element) GGGGUUUCCUGCUUCAACAGUGCUUGGACGGAACC; assay: microscale thermophoresis, labelled IRP1; conditions: 150 mM NaCl; IRP1/RNA complex, RNA alone not tested; 2 nM IRP1, 250 nM RNA; same buffer; Posiphen to 50 µM
[3] = target: T1, IRP1 (iron regulatory protein 1); assay: MST; no Posiphen; MST: 2 nM labeled IRP1, 25 mM Tris pH 7.4, 150 mM NaCl, 0.1% Prionex, 10 min incubation; temperature not stated; conditions: protein: commercial; hairpin

Row | Molecule | Kd [1] [nM] | binding [2] | Kd [3] [nM]
1 | CN1CC[C@]2(C)c3cc(OC(=O)Nc4ccccc4)ccc3N(C)[C@H]12 | 3.2 | no | 
2 | GGUGGCGGCGCGGGCAGAGCAAGGACGCGGCGGAU (structured_RNA) [APP IRE RNA (atypical)] |  |  | 225
3 | GGGGUUUCCUGCUUCAACAGUGCUUGGACGGAACC (structured_RNA) [H-ferritin IRE RNA (canonical)] |  |  | 88.5
